{
  "source": "patent US8945540B2",
  "about": "“Compositions for enhancing the antibacterial activity of myeloperoxidase and methods of use thereof” (Exoxemis, Inc., priority 2008, dated 2015)",
  "key": {"Bacillus subtilis spores": {"tested_on": "Bacillus subtilis spores", "assay": "Myeloperoxidase system with beta alanine and L-alanine against spores in the presence of blood", "assay_type": "cell-based", "settings": "2 hours, MPO 25 μg/mL (9.4 U/mL), GO 8.3 U/mL", "experimental": "The effect of a two-way combination of beta alanine and L-alanine, as potential enhancing agents, for MPO microbicidal action against Bacillus subtilis spores in the presence of blood, was determined following the procedure of Example 2. However, in this case each test contained a single low concentration of MPO (25 μg/mL or 9.4 U/mL) and glucose oxidase (8.3 U/mL). […] The effect of both L-alanine and beta alanine alone on the myeloperoxidase antimicrobial activity against Bacillus subtilis spores was tested for comparison.\nThe nature of the relationship between beta alanine and L-alanine was examined following the synergy determination method described above."}, "Staphylococcus aureus [1]": {"tested_on": "Staphylococcus aureus", "assay": "Control: microbicidal activity of the amino acid or analogue alone (no glucose, MPO, glucose oxidase) in the presence of blood", "assay_type": "cell-based", "settings": "amino acid alone 5 mM, MPO 0, GO 0, no glucose, blood, without replication", "source_text": "As a control to determine the microbicidal activity of the amino acids alone, the foregoing procedure was followed without replication, except in the absence of glucose, MPO, and glucose oxidase."}, "Staphylococcus aureus [2]": {"tested_on": "Staphylococcus aureus", "assay": "Microbicidal activity of the myeloperoxidase system (p-MPO, glucose oxidase, glucose) with amino acids in the presence of blood, CFU plate counts; synergy determination from these CFU", "assay_type": "cell-based", "settings": "for Average Viability CFU/ml 50 min / Log Reduction 50 min: single amino acid 2.5 mM, MPO 4.7 U/ml, GO 4.2 U/ml, in the presence of blood", "summary_of_the_method": "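Microbicidal activity of the MPO–glucose oxidase–glucose system against S. aureus with amino acids was assessed in 3% whole blood. Reactions of 1 mL were run at room temperature or 37° C and stopped with catalase. Surviving CFU were counted on trypticase soy agar. For each pair, Actual CFU was divided by Predicted CFU and multiplied by 100. This value was compared with variability-based thresholds to classify synergism, antagonism or additivity.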"}, "S. pyogenes": {"tested_on": "S. pyogenes", "assay": "MIC, modified CLSI broth microdilution (CAMHB with 5% lysed horse blood)", "assay_type": "cell-based", "settings": "Streptococcus pyogenes, 33 clinical isolates", "quoted_text": "(§3) Modifications were made to the standard broth microdilution method to accommodate the rapid in vitro activity of the Enhanced MPO Solution as described below. Each antimicrobial agent and Concentrate solution was diluted in double strength cation-adjusted Mueller-Hinton Broth (CAMHB) and dispensed in mircrodilution trays. All β-hemolytic streptococci were tested in double strength CAMHB supplemented with 5% lysed horse blood. Isolates were prepared by suspending several colonies (four to six) from an overnight culture on Trypticase Soy Agar (TSA) with 5% sheep blood into sterile saline and the density adjusted to a 0.5 McFarland standard (˜10^8 CFU/ml). Standardized bacterial suspensions were further diluted in double strength Diluent solution so that approximately 5×10^5 CFU/ml was mixed with serial drug dilutions. […] The microdilution trays were incubated in ambient air at 35° C. for 18 to 24 h."}, "S. aureus": {"tested_on": "S. aureus", "assay": "MIC, modified CLSI broth microdilution", "assay_type": "cell-based, Staphylococcus aureus", "source_text": "(§1) All clinical isolates were obtained from the culture collection of Eurofins Medinet Anti-Infective Services (Herndon, Va.), and represent diverse geographical regions. They were originally derived from clinical specimens and identified using standard microbiological methods (see Table 33 below for details). Escherichia coli ATCC 25922, Staphylococcus aureus ATCC 25923, S. aureus ATCC 29213, Pseudomonas aeruginosa ATCC 27853, and Enterococcus faecalis ATCC 29212 were used as quality control strains for the Enhanced MPO Solution and comparator agents to validate the modified Clinical and Laboratory Standards Institute (CLSI, formally NCCLS) broth microdilution method.\n(§2) Modifications were made to the standard broth microdilution method to accommodate the rapid in vitro activity of the Enhanced MPO Solution as described below. Each antimicrobial agent and Concentrate solution was diluted in double strength cation-adjusted Mueller-Hinton Broth (CAMHB) and dispensed in mircrodilution trays. All β-hemolytic streptococci were tested in double strength CAMHB supplemented with 5% lysed horse blood. Isolates were prepared by suspending several colonies (four to six) from an overnight culture on Trypticase Soy Agar (TSA) with 5% sheep blood into sterile saline and the density adjusted to a 0.5 McFarland standard (˜10^8 CFU/ml). Standardized bacterial suspensions were further diluted in double strength Diluent solution so that approximately 5×10^5 CFU/ml was mixed with serial drug dilutions. The addition of Diluent solution to the Concentrate solution activates the enzyme system, which in turn exerts its rapid mode of action. The microdilution trays were incubated in ambient air at 35° C. for 18 to 24 h.\nMIC ranges were established for the Enhanced MPO Solution by testing over 20 replicates of one lot of the Enhanced MPO Solution against S. aureus ATCC 29213 and E. coli ATCC 25922. Quality control parameters were then determined for the Enhanced MPO Solution by testing three lots of the Concentrate solution used for preparation of the final Enhanced MPO Solution formulation. Testing was performed in duplicate against S. aureus ATCC 29213 and E. coli ATCC 25922. The effects of modifying the standard broth microdilution test were also assessed with antibiotics with known quality control limits to validate the CLSI broth microdilution method."}, "E. faecium": {"tested_on": "E. faecium", "assay": "MIC, modified CLSI broth microdilution", "assay_type": "cell-based", "settings": "Enterococcus faecium, 22 clinical isolates", "quoted_text": "as §3"}, "E. faecalis": {"tested_on": "E. faecalis", "assay": "MIC, modified CLSI broth microdilution", "assay_type": "cell-based, Enterococcus faecalis", "source_text": "as §1\nas §2, with “The addition of Diluent solution to the Concentrate solution activates the enzyme system, which in turn exerts its rapid mode of action. The microdilution trays were incubated in ambient air at 35° C. for 18 to 24 h.” left out\nMIC ranges were established for the Enhanced MPO Solution by testing over 20 replicates of one lot of the Enhanced MPO Solution against S. aureus ATCC 29213 and E. coli ATCC 25922. Quality control parameters were then determined for the Enhanced MPO Solution by testing three lots of the Concentrate solution used for preparation of the final Enhanced MPO Solution formulation. […] The effects of modifying the standard broth microdilution test were also assessed with antibiotics with known quality control limits to validate the CLSI broth microdilution method."}, "S. epidermidis": {"tested_on": "S. epidermidis", "assay": "MIC, modified CLSI broth microdilution", "assay_type": "cell-based, Staphylococcus epidermidis", "quoted_text": "as §3"}, "S. agalactiae": {"tested_on": "S. agalactiae", "assay": "MIC, modified CLSI broth microdilution (CAMHB with 5% lysed horse blood)", "assay_type": "cell-based", "settings": "Streptococcus agalactiae, 34 clinical isolates", "quoted_text": "as §3"}, "[3]": {"tested_on": "streptococci groups C, F, and G", "assay": "MIC, modified CLSI broth microdilution (CAMHB with 5% lysed horse blood)", "assay_type": "cell-based, Streptococcus Group C, Group F, Group G", "settings": "for MIC Range: range for all strains tested", "quoted_text": "as §3"}, "[4]": {"settings": "Table 2, amino acid 5 mM (none: 0 mM), MPO 38 U/ml, GO 33.3 U/ml, blood"}, "[5]": {"settings": "Staphylococcus aureus, 109 clinical isolates"}, "[6]": {"settings": "Enterococcus faecalis, 33 clinical isolates"}, "[7]": {"settings": "Staphylococcus epidermidis, 31 clinical isolates"}, "[8]": {"settings": "Streptococcus Group G, 18 clinical isolates"}},
  "data": [
    {"smiles": "C[C@H](N)C(=O)O", "note": "[L-Alanine]", "values": [
      {"measurement": "CFU survivors", "setting": "Bacillus subtilis spores", "value": 520000, "unit": "CFU"},
      {"measurement": "log reduction", "setting": "Bacillus subtilis spores", "value": 1.5, "unit": "log"},
      {"measurement": "log reduction at 5000 µM", "setting": "Staphylococcus aureus [1]; Staphylococcus aureus, 1 h, read-out: Log Reduction 60 min", "value": 0},
      {"measurement": "Average Viability CFU/ml 60 min", "setting": "Staphylococcus aureus [1]", "value": 24100000, "unit": "CFU/ml"},
      {"measurement": "Log 10 (CFU + 1) Survivors", "setting": "Staphylococcus aureus [2]; MPO 25 μg/mL, AA 5 mM, 30 min", "value": 6.9},
      {"measurement": "Log 10 (CFU + 1) Survivors", "setting": "Staphylococcus aureus [2]; MPO 25 μg/mL, AA 5 mM, 60 min", "value": 4.1},
      {"measurement": "Log 10 (CFU + 1) Survivors", "setting": "Staphylococcus aureus [2]; MPO 25 μg/mL, AA […], 30 min", "value": 7.0},
      {"measurement": "Log 10 (CFU + 1) Survivors", "setting": "Staphylococcus aureus [2]; MPO 25 μg/mL, AA […], 60 min", "value": 4.7},
      {"measurement": "Log 10 (CFU + 1) Survivors", "setting": "Staphylococcus aureus [2]; MPO 100 μg/mL, AA 5 mM, 30 min", "value": 5.1},
      {"measurement": "Log 10 (CFU + 1) Survivors", "setting": "Staphylococcus aureus [2]; MPO 100 μg/mL, AA 5 mM, 60 min", "value": 0.0},
      {"measurement": "Log 10 (CFU + 1) Survivors", "setting": "Staphylococcus aureus [2]; MPO 100 μg/mL, AA 20 mM, 30 min", "value": 6.1},
      {"measurement": "Log 10 (CFU + 1) Survivors", "setting": "Staphylococcus aureus [2]; MPO 100 μg/mL, AA 20 mM, 60 min", "value": 0.0},
      {"measurement": "Average Viability CFU/ml 60 min", "setting": "Staphylococcus aureus [2]; [4]", "value": 7, "unit": "CFU/ml"},
      {"measurement": "Log 10 (CFU + 1) Survivors 60 min", "setting": "Staphylococcus aureus [2]; [4]", "value": 0.9},
      {"measurement": "Log Reduction 60 min", "setting": "Staphylococcus aureus [2]; [4]", "value": 6.5},
      {"measurement": "Average Viability CFU/ml 50 min", "setting": "Staphylococcus aureus [2]; Table 10", "value": 9750000, "unit": "CFU/ml"},
      {"measurement": "Log Reduction 50 min", "setting": "Staphylococcus aureus [2]; Table 10", "value": 0.4},
      {"measurement": "Average Viability CFU/ml 50 min", "setting": "Staphylococcus aureus [2]; Table 13", "value": 2230000, "unit": "CFU/ml"},
      {"measurement": "Log Reduction 50 min", "setting": "Staphylococcus aureus [2]; Table 13", "value": 1.0},
      {"measurement": "Average Viability CFU/ml 50 min", "setting": "Staphylococcus aureus [2]; Table 14", "value": 2215000, "unit": "CFU/ml"},
      {"measurement": "Log Reduction 50 min", "setting": "Staphylococcus aureus [2]; Table 14", "value": 1.1}
    ]},
    {"smiles": "C/C(=C\\C(=O)OCCCCCCCCC(=O)O)C[C@@H]1OC[C@H](C[C@@H]2O[C@H]2[C@@H](C)[C@H](C)O)[C@@H](O)[C@H]1O", "note": "[mupirocin]", "values": [
      {"measurement": "MIC50", "setting": "S. pyogenes", "value": 0.12, "unit": "µg/mL"},
      {"measurement": "MIC90", "setting": "S. pyogenes", "value": 0.25, "unit": "µg/mL"},
      {"measurement": "MIC Range", "setting": "S. pyogenes; range for all strains tested", "value": "0.06 to 0.5", "unit": "µg/mL"},
      {"measurement": "MIC by the modified method versus published quality control ranges", "setting": "S. aureus; S. aureus ATCC 29213, inoculum prepared in Diluent solution", "value": "within previously published quality control ranges"},
      {"measurement": "MIC50", "setting": "S. aureus; [5]", "value": 0.06, "unit": "µg/mL"},
      {"measurement": "MIC90", "setting": "S. aureus; [5]", "value": 0.12, "unit": "µg/mL"},
      {"measurement": "MIC range, upper end", "setting": "S. aureus; clinical isolates", "value": "> 32", "unit": "µg/mL"},
      {"measurement": "MIC50", "setting": "E. faecium", "value": 0.25, "unit": "µg/mL"},
      {"measurement": "MIC90", "setting": "E. faecium", "value": 0.25, "unit": "µg/mL"},
      {"measurement": "MIC Range", "setting": "E. faecium; range for all strains tested", "value": "0.06 to 0.5", "unit": "µg/mL"},
      {"measurement": "MIC50", "setting": "E. faecalis; [6]", "value": 32, "unit": "µg/mL"},
      {"measurement": "MIC90", "setting": "E. faecalis; [6]", "value": "> 32", "unit": "µg/mL"},
      {"measurement": "MIC range, upper end", "setting": "E. faecalis; clinical isolates", "value": "> 32", "unit": "µg/mL"},
      {"measurement": "MIC50", "setting": "S. epidermidis; [7]", "value": 0.12, "unit": "µg/mL"},
      {"measurement": "MIC90", "setting": "S. epidermidis; [7]", "value": "> 32", "unit": "µg/mL"},
      {"measurement": "MIC range, upper end", "setting": "S. epidermidis; clinical isolates", "value": "> 32", "unit": "µg/mL"},
      {"measurement": "MIC50", "setting": "S. agalactiae", "value": 0.5, "unit": "µg/mL"},
      {"measurement": "MIC90", "setting": "S. agalactiae", "value": 0.5, "unit": "µg/mL"},
      {"measurement": "MIC Range", "setting": "S. agalactiae; range for all strains tested", "value": "0.12 to 2", "unit": "µg/mL"},
      {"measurement": "MIC Range", "setting": "[3]; Streptococcus Group C, 8 clinical isolates", "value": "0.06 to 0.5", "unit": "µg/mL"},
      {"measurement": "MIC Range", "setting": "[3]; Streptococcus Group F, 2 clinical isolates", "value": "0.25-0.25 μg/ml"},
      {"measurement": "MIC50", "setting": "[3]; [8]", "value": 0.12, "unit": "µg/mL"},
      {"measurement": "MIC90", "setting": "[3]; [8]", "value": 0.12, "unit": "µg/mL"},
      {"measurement": "MIC Range", "setting": "[3]; [8]", "value": "0.06 to 0.5", "unit": "µg/mL"}
    ]}
  ]
}
